Measured values reported in patent US8420630B2 (Boehringer Ingelheim Pharma GmbH & Co. KG, priority 2001, dated 2013).

Molecular target: T1, CDK1/cyclinB1 (Homo sapiens, UniProt P06493)
T1 construct: made in house; host or cells: High Five insect cells (Trichoplusia ni), baculovirus coinfection
Test: Cyclin B1-CDK1 kinase inhibition test
Type: biochemical
Conditions: CDK1 tests (Example 13); recombinant cyclin B1/CDK1, substrate histone H1; read-out: CDK1/cyclinB1 IC50 value
Experimental: CDK4) were cloned by standard methods using RT-PCR, and cloned into a transfer vector (cyclin in pAcG2T made by Pharmingen, CDKs in p2Bac made by Invitrogen) for the baculovirus system. […] After thawing the cells were resuspended in lysing buffer (50 mM HEPES pH 7.5, 10 mM MgCl2, 1 mM DTT, 5 μg/ml leupeptin, 5 μg/ml aprotinin, 100 μM NaF, 100 μM PMSF, 10 mM β-glycerolphosphate, 100 μM Na3VO4, 30 mM nitrophenylphosphate, 17.5 ml of lysing buffer per 10^8 cells) and incubated on ice for 30 min. […] Cyclin D1-CDK4 was purified by means of a GST-tag on cyclin D1 and then using glutathione beads (total protein about 0.2 mg/ml). All the kinase tests were carried out in 96-well microtitre plates (Greiner PS) in a final volume of 60 μl. […] As a negative control the kinase reaction was carried out in the absence of the substrate histone H1. As a positive control the kinase reaction was carried out in the absence of a test substance. As an internal control 30 μM and 300 μM (final concentration) of the kinase inhibitor olomoucin (Alexis) were used. […] The kinase reaction is started by the addition of 10 μl of ATP mix (0.045 mM ATP, 0.5 μCi ^33P-ATP in kinase buffer) and incubated for 30 min at 30° C. and 600 rpm in a shaking incubator. After incubation the plates were placed on ice and the proteins were precipitated by the addition of 125 μl of ice-cold 5% trichloroacetic acid. After 15 min on ice the precipitates were transferred onto Packard Unifilter 96 GF/B plates with the Packard Harvester System, and collected by vacuum filtration. The precipitates were washed 4 times with dist. H2O at ambient temperature. The filter plates were then dried at 60° C. and 50 μl of scintillation liquid were added to each well (Ultima Gold, Packard). The plate was sealed up with Sealing Tape and after 1 h measured in a scintillation measuring apparatus (Micro Beta made by Wallac).

T1 sequence (P06493 whole entry): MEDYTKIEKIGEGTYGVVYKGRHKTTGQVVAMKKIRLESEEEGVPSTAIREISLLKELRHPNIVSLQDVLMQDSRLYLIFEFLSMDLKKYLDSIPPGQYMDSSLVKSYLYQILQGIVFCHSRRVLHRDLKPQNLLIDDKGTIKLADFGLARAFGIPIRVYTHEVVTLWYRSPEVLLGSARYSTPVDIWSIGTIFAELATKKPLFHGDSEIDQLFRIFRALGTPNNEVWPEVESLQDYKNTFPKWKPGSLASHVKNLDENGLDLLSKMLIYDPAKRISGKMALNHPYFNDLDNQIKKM
T1 sequence (P14635 whole entry partner): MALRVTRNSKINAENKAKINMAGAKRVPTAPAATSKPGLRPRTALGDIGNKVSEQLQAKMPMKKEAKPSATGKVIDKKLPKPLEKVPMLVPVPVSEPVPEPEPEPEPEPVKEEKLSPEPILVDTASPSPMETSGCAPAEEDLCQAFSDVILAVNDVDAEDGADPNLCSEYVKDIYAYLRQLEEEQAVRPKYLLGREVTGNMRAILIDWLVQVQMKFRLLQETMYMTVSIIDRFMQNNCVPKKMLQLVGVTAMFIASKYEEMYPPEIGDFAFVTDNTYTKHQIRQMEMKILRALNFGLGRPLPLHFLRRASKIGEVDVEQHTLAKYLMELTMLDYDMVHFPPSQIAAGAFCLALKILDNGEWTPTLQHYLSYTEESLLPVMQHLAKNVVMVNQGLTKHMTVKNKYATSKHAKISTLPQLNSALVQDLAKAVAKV

IC50	SMILES
< 100 nM	CC(=O)NCCNc1nc(Nc2ccc3cn(C)nc3c2)ncc1C(F)(F)F [Example 1(656), N-{2-[2-(2-methyl-2H-indazol-6-ylamino)-5-trifluoromethyl-pyrimidin-4-ylamino]-ethyl}-acetamide]
< 100 nM	CC(=O)NCCNc1nc(Nc2ccc3[nH]ncc3c2)ncc1C(F)(F)F [Example 2(045), N-{2-[2-(1H-Indazol-5-ylamino)-5-trifluoromethyl-pyrimidin-4-ylamino]-ethyl}-acetamide]
< 100 nM	O=C1CCCN1CCCNc1nc(Nc2ccc3cn[nH]c3c2)ncc1Cl [Example 2(048), 1-{3-[5-chloro-2-(1H-indazol-6-ylamino)-pyrimidin-4-ylamino]-propyl}-pyrrolidin-2-on]
< 100 nM	CC(=O)NCCNc1nc(Nc2ccc(S(=O)(=O)N(C)C)cc2)ncc1Br [Example 1(652), N-{2-[5-Bromo-2-(4-dimethylsulphamoyl-phenylamino)-pyrimidin-4-ylamino]-ethyl}-acetamide]
< 100 nM	CC(=O)NCCNc1nc(Nc2ccc(C(=O)N(C)C)c(Cl)c2)ncc1C(F)(F)F [Example 8(007), 4-[4-(2-acetylamino-ethylamino)-5-trifluoromethyl-pyrimidin-2-ylamino]-2-chloro-N,N-dimethyl-benzamide]
< 100 nM	CC(=O)NCCCNc1nc(Nc2ccc(C(N)=O)cc2)ncc1C(F)(F)F [Example 7(027), 4-[4-(3-acetylamino-propylamino)-5-trifluoromethyl-pyrimidin-2-ylamino]-benzamide]
< 100 nM	CN(C)CC(=O)NCCCNc1nc(Nc2ccc(C(N)=O)cc2)ncc1C(F)(F)F [Example 7(029), 4-(4-[3-(2-dimethylamino-acetylamino)-propylamino]-5-trifluoromethyl-pyrimidin-2-ylamino)-benzamide]
< 100 nM	CC(=O)NCCNc1nc(Nc2ccc(Cl)cc2)ncc1C(F)(F)F [Example 2(016), 2-(4-chloro-phenylamino)-4-(2-acetylamino-ethylamino)-5-trifluoromethyl-pyrimidine]
< 100 nM	CC(=O)NCCNc1nc(Nc2ccc(S(=O)(=O)N3CC(C)NC(C)C3)cc2)ncc1C(F)(F)F (stereo not drawn) [Example 2(061), N-(2-{2-[4-(3,5-Dimethyl-piperazin-1-sulphonyl)-phenylamino]-5-trifluoromethyl-pyrimidin-4-ylamino}-ethyl)-acetamide]
< 100 nM	O=C1CCCN1CCCNc1nc(Nc2ccc(-c3nn[nH]n3)cc2)ncc1C(F)(F)F [Example 2(076), 1-(3-{2-[4-(2H-tetrazol-5-yl)-phenylamino]-5-trifluoromethyl-pyrimidin-4-ylamino}-propyl)-pyrrolidin-2-one]
< 100 nM	CC(CC(=O)O)Nc1nc(Nc2ccc(Cl)c(Cl)c2)ncc1C(F)(F)F (stereo not drawn) [Example 1(388), 2-(3,4-dichlorophenylamino)-4-(1-carboxy-2-propylamino)-5-trifluoromethyl-pyrimidine]
< 100 nM	CC(=O)NC(C)(C)CNc1nc(Nc2ccc(S(=O)(=O)N3CCOCC3)cc2)ncc1C(F)(F)F [Example 1(685), N-(1,1-dimethyl-2-{2-[4-(morpholine-4-sulphonyl)-phenylamino]-5-trifluoromethyl-pyrimidin-4-ylamino}-ethyl)-acetamide]
< 100 nM	CC(=O)NCCNc1nc(Nc2cccc(S(=O)(=O)N(C)C)c2)ncc1C(F)(F)F [Example 1(651), N-{2-[2-(3-dimethylsulphamoyl-phenylamino)-5-trifluoromethyl-pyrimidin-4-ylamino]-ethyl}-acetamide]
< 100 nM	CC(=O)NCCNc1nc(Nc2ccc3[nH]nnc3c2)ncc1C(F)(F)F [Example 2(042), N-{2-[2-(1H-Benzotriazol-5-ylamino)-5-trifluoromethyl-pyrimidin-4-ylamino]-ethyl}-acetamide]
< 100 nM	CC(=O)NCCNc1nc(Nc2cc(Cl)cc(Cl)c2)ncc1C(F)(F)F [Example 2(015), 2-(3,5-Dichloro-phenylamino)-4-(2-acetylamino-ethylamino)-5-trifluoromethyl-pyrimidine]
< 100 nM	CC(=O)NCCNc1nc(Nc2ccc(Br)c(Cl)c2)ncc1C(F)(F)F [Example 2(014), 2-(4-bromo-3-chloro-phenylamino)-4-(2-acetylamino-ethylamino)-5-trifluoromethyl-pyrimidine]
< 100 nM	CC(=O)NCCNc1nc(Nc2ccc(S(N)(=O)=O)cc2)ncc1C(F)(F)F [Example 2(008), 2-(4-aminosulphonyl-phenylamino)-4-(2-acetylamino-ethylamino)-5-trifluoromethyl-pyrimidine]
< 100 nM	CC(=O)NCC(C)(C)Nc1nc(Nc2ccc(S(=O)(=O)N3CCOCC3)cc2)ncc1C(F)(F)F [Example 1(585), N-(2-Methyl-2-{2-[4-(morpholin-4-sulphonyl)-phenylamino]-5-trifluoromethyl-pyrimidin-4-ylamino}-propyl)-acetamide]

The next lines start with the molecule.

SMILES	IC50
FC(F)(F)c1cnc(Nc2ccc(Cl)c(Cl)c2)nc1NCCCN1CC2C=CC1C2 (stereo not drawn) [Example 1(009), 2-(3,4-dichlorophenylamino)-4-(3-(2-aza-bicyclo[2.2.1]hept-5-en-2-yl)-propylamino)-5-trifluoro-methyl-pyrimidine]	< 100 nM
O=C1CCCN1CCCNc1nc(Nc2cccc(Br)c2)ncc1C(F)(F)F [Example 1(047), 2-(3-bromo-phenylamino)-4-(3-(2-oxo-pyrrolidin-1-yl)-propyl-1-amino)-5-trifluoromethyl-pyrimidine]	< 100 nM
NC1CCCC(Nc2nc(Nc3ccc4ccccc4c3)ncc2C(F)(F)F)C1 (stereo not drawn) [Example 1(039), 2-(2-naphthylamino)-4-(3-amino-cyclohexylamino)-5-trifluoromethyl-pyrimidine]	< 100 nM
NCCc1ccccc1CCNc1nc(Nc2ccc(Cl)c(Cl)c2)ncc1C(F)(F)F [Example 1(349), 2-(3,4-dichlorophenylamino)-4-(2-(2-(2-amino-1-ethyl)-phenyl)-1-ethyl-amino)-5-trifluoromethyl-pyrimidine]	< 100 nM
O=[N+]([O-])c1cnc(Nc2ccc(F)c(Cl)c2)nc1N1CCc2[nH]cnc2C1 [Example 1(015), 2-(3-chloro-4-fluoro-phenylamino)-4-(1,4,6,7-tetrahydro-imidazo[4,5-c]pyridin-5-yl)-5-nitro-pyrimidine]	< 100 nM
NCC1CCC(CNc2nc(Nc3ccccc3)ncc2C(F)(F)F)CC1 (stereo not drawn) [Example 1(033), 2-phenylamino-4-(4-aminomethyl-cyclohexylmethylamino)-5-trifluoromethyl-pyrimidine]	< 100 nM
CC(=O)N(C)CC1CCN(c2nc(Nc3ccc(Cl)cc3)ncc2[N+](=O)[O-])CC1 [Example 1(052), 2-(4-chloro-phenylamino)-4-(4-(N-acetyl-N-methyl-aminomethyl)-piperidin-1-yl)-5-nitro-pyrimidine]	< 100 nM
NC(=O)c1ccc(Nc2ncc(Br)c(NCCCN3CCCC3=O)n2)cc1 [Example 1(662)]	< 100 nM
FC(F)(F)c1cnc(Nc2ccc(Br)cc2)nc1N1CCc2[nH]cnc2C1 [Example 1(019), 2-(4-bromo-phenylamino)-4-(1,4,6,7-tetrahydro-imidazo[4,5-c]pyridin-5-yl)-5-trifluoromethyl-pyrimidine]	< 100 nM
O=C1CCCN1CCCNc1nc(Nc2ccccc2)ncc1C(F)(F)F [Example 1(031), 2-phenylamino-4-(3-(2-oxo-pyrrolidin-1-yl)-propyl-1-amino)-5-trifluoromethyl-pyrimidine]	< 100 nM
N#Cc1ccc(Nc2ncc([N+](=O)[O-])c(N3CCc4[nH]cnc4C3)n2)cc1 [Example 1(032), 2-(4-cyano-phenylamino)-4-(1,4,6,7-tetrahydro-imidazo[4,5-c]pyridin-5-yl)-5-nitro-pyrimidine]	< 100 nM
FC(F)(F)c1cnc(Nc2ccc(Cl)cc2)nc1N1CCc2[nH]cnc2C1 [Example 1(004), 2-(4-chlorophenylamino)-4-(1,4,6,7-tetrahydro-imidazo[4,5-c]pyridin-5-yl)-5-trifluoromethyl-pyrimidine]	< 100 nM
FC(F)(F)c1cnc(Nc2cccc(Br)c2)nc1N1CCc2[nH]cnc2C1 [Example 1(038), 2-(3-bromo-phenylamino)-4-(1,4,6,7-tetrahydro-imidazo[4,5-c]pyridin-5-yl)-5-trifluoromethyl-pyrimidine]	< 100 nM
CN(C)[C@H]1CC[C@H](Nc2nc(Nc3ccc(C(=O)O)cc3)ncc2C(F)(F)F)CC1 [Example 1(054), 2-(4-carboxy-phenylamino)-4-(trans-4-dimethylamino-cyclohexylamino)-5-trifluoromethyl-pyrimidine]	< 100 nM
NCC1CCC(CNc2nc(Nc3ccc(Cl)cc3)ncc2C(F)(F)F)CC1 (stereo not drawn) [Example 1(107), 2-(4-chloro-phenylamino)-4-(4-aminomethyl-cyclohexylmethylamino)-5-trifluoromethyl-pyrimidine]	< 100 nM
